The text below walks through data of patent US20240216369A1, “THE USE OF A SPLICING MODULATOR FOR A TREATMENT SLOWING PROGRESSION OF HUNTINGTON'S DISEASE” (Novartis AG, priority 2019, published 2024).

“Also recorded” adds a separate entry of the source.

The subject of this assay is HTT transcript. Kind of assay: Single oral dose in BacHD mice: HTT transcripts in brain and blood (qPCR). Format: in vivo. The method, then:
Twenty-eight BacHD mice (FVB/N-Tg(HTT*97Q)|Xwy/J transgenic mice—Jackson Laboratories) were used for the experiment. Animal protocols were approved by the Children's Hospital of Philadelphia Institutional Animal Care and use Committee. Mice were housed in a temperature-controlled environment on a 12-h light/dark cycle. Food and water were provided ad libitum.
A single dose of branaplam or vehicle solution was administered by oral gavage. Mice were divided in seven groups (n=4 mice/group) and treated with branaplam (10 mg/kg—2 groups) and 50 mg/kg—3 groups), or vehicle (2 groups) as control. Mice were firmly restrained by grasping the loose skin to immobilize the head, maintained in a vertical position and a 22- to 26-gauge gavage needle was placed in the side of the mouth. The needle was guided following the roof of the mouth into the esophagus and allowed to gently enter in the stomach. The amount of branaplam or vehicle administrated to each mouse was based on the weight recorded before treatment.
At 8 h, 24 h (vehicle and branaplam 10 mg/kg & 50 mg/kg), and 48 h (branaplam 50 mg/kg) after oral gavage, blood and tissue samples were obtained for PK and PD analysis. Mice were anesthetized with isoflurane and blood was obtained via submandibular vein bleeds and collected for RNA extraction (PD analysis) using RNAprotect Animal Blood Tubes, and plasma (PK analysis) using K2EDTA coated tubes. Cells were removed from plasma by centrifugation for 10 min at 2000×g at 4° C., and plasma samples were stored at −80° C. Following blood collection, mice were anesthetized with a lethal dose of ketamine/xylazine ([…] of a 10 mg:1 mg), and perfused with 18 ml of 0.9% cold saline mixed with 2 ml of RNAlater (Ambion) solution for tissue collection. Liver, skeletal muscle, cerebrum, and cerebellum samples were flash frozen in liquid nitrogen and stored at −80° C.
In experiments, as herein described, the branaplam dose is provided as a solution of branaplam monohydrochloride salt (10 mg/mL suspension) in methyl cellulose, medium viscosity 400 cP for a 1% solution), Tween 80 (1% v/v), purified water suspension formulation.
Total RNA from cerebrum and cerebellum was extracted using RNeasy Plus kit (Qiagen) after homogenized in Precellys at 6000 rpm for 40 sec. RNA from blood was extracted using PAXgene blood RNA kit (Qiagen) according to manufacturer protocol. The RNA was quantified by Nanodrop 2000 (Thermo Scientific). cDNAs were synthesized from 140-400 ng RNA using Maxima First strand cDNA synthesis kit using a mix of oligo dT and random hexamers (Thermo Scientific) in 20 uL reaction at 25° C. for 10 min, 50° C. for 15 min then 85° C. for 5 min. Quantitative PCR was performed using Taqman Fast Advanced master mix (Thermo Scientific) in 20 uL with 4 uL of cDNA reaction and primers specific for each genes. The PCR steps were as follows: 95° C. for 20 sec then 40 cycles of 95° C. for 1 sec, 55° C. for 20 sec. […] Relative quantification of gene expression was performed using 2^−ΔΔCT method. Fold changes in the mRNA expression level was calculated following normalization to mouse glucuronidase beta (Gusb) as an endogenous reference.

Setting [1] is: single oral dose 10 or 50 mg/kg, listed as branaplam.

Take `CC1(C)CC(Oc2ccc(-c3ccc(-c4cn[nH]c4)cc3O)nn2)CC(C)(C)N1` [Compound 18, 5-(1H-pyrazol-4-yl)-2-(6-((2,2,6,6-tetramethylpiperidin-4-yl)oxy)pyridazin-3-yl)phenol]: the “novel-exon-containing HTT transcript levels in brain” value reads like this: (single oral dose 50 mg/kg, 48 h after dosing) “trend towards return to vehicle levels”; (single oral dose 10 or 50 mg/kg, 8 and 24 h after dosing, listed as branaplam) “elevates; also recorded: dose dependent increase”. Moreover, the “total HTT transcript levels in brain” value (single oral dose 10 or 50 mg/kg, 8 h and 24 h, listed as branaplam) was “lowers; also recorded: lowering trend at 8 h; also recorded: greater degree of lowering at the 50 mg/kg level, 24 hours post-dosing”. Also, the “novel-exon-containing HTT transcript levels in blood” value under setting [1] is “elevates; also recorded: robust modulation”. Besides, the “total HTT transcript levels in blood” value under setting [1] is reported as “lowers; also recorded: lowering”.
